We go through six molecules from patent US12350244B2, “MEK-inhibitor for the treatment of viral and bacterial infections” (priority 2019, dated 2025).

Series [1] relates to S. aureus 6850. Description: Over-night treatment, bacterial titers (CFU/ml), strain 6850. In kind it is cell-based, Staphylococcus aureus. To be noted: for effect on bacterial titers: over-night treatment, concentrations as indicated in figures.
Another series deals with influenza virus. The conditions noted are these: mouse model, cited from earlier work; for effect of treatment started late post infection: 48 h or more post infection, previous studies.
The next series relates to H1N1pdm09. As to the kind of experiment: Lung virus titration assay in mice (Example 11). To be noted: for virus titer in the lung (control set to 100%): 24 h after infection. In kind it is in vivo, C57BL/6 mice. The method, then:
(A) After H1N1pdm09 infection female C57BL/6 mice were treated with either 2.8, 8.4 or 25 mg/kg PD-0184264 (left side) or with 25, 75 or 150 mg/Kg […] (left side) the oral route. 24 hrs after infection the animals were killed and lung was taken to prepare a 10% suspension. Virus titer was determined using the standard method. Virus titer of mice treated with the two MEK-inhibitors were compared to virus titer of mice treated with solvent (Control) alone. Virus tier in the lungs of control mice was set to 100% (black bar). Graphpad Prism 7 software was used to illustrate both figures.
For oral application of 25 mg/kg, 2.5 mg of PD-0184264 were dissolved in 50 μl DMSO (Sigma-Aldrich, Germany) and further diluted with 0.15 ml Cremophor EL (Merck-Millipore, Germany) and 0.8 ml PBS (Gibco, Germany). For application of 8.4 mg/kg and 2.8 mg/kg, 0.84 mg or 0.28 mg PD-0184264 were dissolved with 50 μl DMSO (Sigma-Aldrich, Germany) and further diluted with 0.15 ml Cremophor EL/0.8 ml PBS.
Eight week old female C57Bl/6 mice (Charles River Laboratories, Germany) with a body weight of 21.0-24.0 g at administration were used for antiviral studies. The animals were normally fed. Drinking water was available ad libitum.
Drugs were administrated using a single dosing on test day 1 by oral gavage. The application speed was 15 s per dose with an administration volume of 200 μl.
Mice were sacrificed 24 h post infection and lungs were weighed, transferred into a Lysing Matrix D tube (MP Bio) and BSS was applied in an amount of the 10-fold volume of the lung. Organs were shredded using the FastPrep FP 120 (Savant). To remove the cell debris the homogenates were centrifuged for 15 min at 2000 rpm and the supernatant collected. The determination of virus titer in homogenates was performed using the AVICEL® plaque assay as described previously (Haasbach et al. 2011, Mastrosovich et al. 2006).

For a further series, the system named is S. aureus. As to the kind of experiment: Resistance development under constant treatment for 17 days. The format is cell-based, Staphylococcus aureus. The conditions noted are these: 24 h cycles repeated for 17 days.
Series [2] concerns A549 cells. As to the kind of experiment: A549 cell viability (trypan blue) and LDH release. The format is cell-based, human. To be noted: 1, 5, 10, 20, 50 or 100 μM, 24 or 48 hours. The method, then:
To rule out that the reduction in viral and intracellular bacterial replication was a result of a cytotoxic effect of PD-0184264 on A549 cells, cell viability in presence of increasing concentrations was monitored for 24 and 48 hours. Additionally, a LDH-Assay was performed to determine membrane rupture due to inhibitor treatment. […] A549 cells were treated for 24 (as shown in FIGS. 15A and C) or 48 (as shown in FIGS. 15B and D) hours with increasing concentrations of PD-0184264 (1, 5, 10, 20, 50 or 100 μM). After the incubation times, supernatants were taken for measurement of LDH release (shown in FIGS. 15C, D) using the CytoSelect LDH Cytotoxicity Assay Kit according to the manufacturer's instructions. Additionally, viable cells were counted by staining with trypan blue. Cell viability was normalized to DMSO-treated cells and is shown as % viability. […] Statistical significance was calculated by one-way ANOVA followed by Dunnett's multiple comparisons test (* p<0.05; ** p<0.01; 27 *** p<0.001).
In general terms: LDH in the medium is a marker of cell lysis.

Series [3] deals with MRSA strain USA300. Description: Over-night treatment, bacterial titers (CFU/ml), MRSA USA300. The format is cell-based, Staphylococcus aureus. To be noted: for effect on bacterial titers: over-night treatment, concentrations as indicated in figures.
Series [4] relates to A549 cells infected with IAV (H1N1) and/or S. aureus 6850. In kind it is cell-based.
Series [5] relates to S. aureus 6850. As to the kind of experiment: Time-of-addition assay, bacterial growth. The format is cell-based, Staphylococcus aureus.
A further series relates to S. aureus strain 6850. As to the kind of experiment: Bacterial growth under heat stress, strain 6850. The conditions noted are these: 20 μM over night, then 42° C. for 6 h. In kind it is cell-based, Staphylococcus aureus. The procedure:
(§1) As the kinase is known to play an important role in bacterial stress resistance, bacterial growth under heat stress was monitored after treatment of the bacteria with the inhibitor PD-0184264. S. aureus strain 6850 and MRSA strain USA300 were treated over night with either solvent or 20 μM of the PD-0184264. The next day subcultures with the same amount of bacteria were prepared (confirmed by OD600 and plating on BHI agar) and further incubated at 42° C. for 6 h. Bacterial titers were then calculated via plating of serial dilutions on BHI agar plates. […] This is both observed for the methicillin-sensitive strain 6850 (black bars) as well as for the MRSA strain USA300 (grey bars). Impaired stress tolerance in the presence of the inhibitor is another indication that PD-0184264 directly targets the kinase PknB, which is an important mediator of stress resistance. In summary, the data provide strong circumstantial evidence, that PD-0184264 elicits its antibacterial action by inhibition of the bacterial kinase PknB.

Series [6] deals with influenza virus strain A/Regensburg/D6/2009, (RB1, H1N1pdm09). Description: Lung virus titer in influenza-infected mice (Example 1). In kind it is in vivo, C57BL/6 mice. The procedure:
8 weeks old C57BL/6 mice (five per group) were infected with 1.5×10^5 PFU (5×MLD50) of the influenza virus strain A/Regensburg/D6/2009, (RB1, H1N1pdm09). […] All animals received a volume of 200 μl per os. Mice were sacrificed 24 h post infection and lungs were weighed, transferred into a Lysing Matrix D tube (MP Bio) and BSS (buffered salt solution) in an amount of the 10-fold volume of the lung was applied to the samples. Organs were shredded using the FastPrep FP 120 (Savant). To remove the cell debris the homogenates were centrifuged for 15 min at 2000 rpm and the supernatant collected. The determination of virus titer in homogenates was performed using the AVICEL® plaque assay. Results are presented in FIG. 1 as virus titer (log 10) pfu/ml (left) or % virus titer (right). Virus titer was determined by two investigators independently. Mean values from all titrations were presented.

In series [7] the test system is A549 cells. As to the kind of experiment: WST-assay. In kind it is cell-based, human. The conditions noted are these: 24 h, FIG. 17C. The procedure: A549 cells were seeded in a 96-well flat-bottom tissue plate (Greiner, Germany) and were grown overnight. […] Thereafter, 10 μl WST-1 reagent (Roche, Germany) was added to the culture medium and incubated for four hours. During this time, the stable tetrazolium salt WST-1 was cleaved to a soluble formazan by metabolically active cells in the culture. After this incubation period, the formazan dye formed was quantitated with ELISA reader at 405 nm. The measured absorbance directly correlated to the number of viable cells.

Series [8] has as its system strain A/Regensburg/D6/2009 Influenza H1N1pdm09. As to the kind of experiment: Survival of infected mice with late start of treatment. The format is in vivo, C57BL/6 mice. To be noted: 25 mg/kg oral BID.
For series [9], the system named is MRSA strain USA300. Description: Bacterial growth under heat stress, MRSA USA300. In kind it is cell-based, Staphylococcus aureus. The conditions noted are these: 20 μM over night, then 42° C. for 6 h. The procedure: as §1
Series [10] has as its system Streptococcus pneumoniae strains TIGR4 (serotype 4) and D39 wt (serotype 2). As to the kind of experiment: Growth of Streptococcus pneumoniae (OD600, CFU/ml). The format is cell-based. The conditions noted are these: over-night treatment, different concentrations. The method, then: Additionally, these kinases share high homology to cellular MAP kinases (e.g. ERK, JNK, p38). […] Thus, the impact of PD-0184264 on different strains of Streptococci pneumonia was analyzed. Streptococcus pneumoniae strains can be divided into different serotypes, which differ in their virulence and overall pathogenicity. To test for a serotype- or strain-independent effect, we used the encapsulated strains D39 and TIGR4, which are both virulent, but belong to different serotypes. […] Then, the OD600 was measured again (Results shown in FIG. 11A) and dilution series were objected to BHI agar plates to determine bacterial titers (Results shown in FIG. 11B).

Like-named read-outs stand apart in the source and are kept apart here.

`O=C(NOCC1CC1)c1ccc(F)c(F)c1Nc1ccc(I)cc1Cl` [CI-1040, 2-(2-chloro-4-iodophenylamino)-N-(cyclopropylmethoxy)-3,4-difluoro benzamide, reference compound]: the “effect on bacterial titers” value in the series with S. aureus 6850 [1] was “effective”. Moreover, in the series with influenza virus (Haasbach et al. 2017 and further experiments of the applicant), the “treatment window post infection” value is “at least 48 h”. In addition, in the series on H1N1pdm09 (oral, 25, 75 or 150 mg/kg tested), the “doses showing any effect in reduction of virus titer” value is at least 75 mg/kg.
As to `CC[C@H]1OC(=O)[C@H](C)[C@@H](O[C@H]2C[C@@](C)(OC)[C@@H](O)[C@H](C)O2)[C@H](C)[C@@H](O[C@@H]2O[C@H](C)C[C@H](N(C)C)[C@H]2O)[C@](C)(O)C[C@@H](C)C(=O)[C@H](C)[C@@H](O)[C@]1(C)O` [Erythromycin], the resistance development entry with S. aureus is given as “readily develop resistances”.
Take `O=C(O)c1ccc(F)c(F)c1Nc1ccc(I)cc1Cl` [PD-0184264, 2-(2-chloro-4-iodophenylamino)-N-3,4-difluoro benzoic acid]: the resistance development result in the series on S. aureus was “did not induce resistance”. Moreover, the “cell toxicity (viability, LDH release)” value with A549 cells [2] is given as “does not induce cell toxicity”. Moreover, the bacterial growth entry in the series with S. aureus 6850 [1] (10 μM, FIG. 4 (strains 6850 and USA300)) is on record as “significant reduction of growth”. The “effect on bacterial titers” value in the series on S. aureus 6850 [1] and in the series on MRSA strain USA300 [3] was “very strong reduction in bacterial load” in each case. In series [4] (co-infection, FIG. 5), the “concentration at which reduction of the cytopathic effect is already shown” value was 15 µM. Besides, the “cytopathic effect (CPE), cell monolayer” value in [4] (increasing concentrations, 24 h, IAV H1N1 MOI 0.001 and S. aureus 6850 MOI 0.1) is “reversed in a concentration dependent manner”. In the series with S. aureus 6850 [5] (0, 3 h and 6 h post inoculation, versus U0126 and gentamicin 0.5 or 2 μg/ml), the “inhibition of bacterial growth compared with all other compounds” value is recorded as “strongest inhibition of bacterial growth”. In addition, in the series with S. aureus 6850 [5] (after medium exchange and incubation without substances), the “mode of antibacterial action” value is recorded as “bacteriostatic rather than a bactericidal action”. For the same molecule, the “bacterial growth under heat stress” value with S. aureus strain 6850 and in the series on MRSA strain USA300 [9] was “strongly impaired” throughout. Further, the “virus titer in the lung (control set to 100%)” value in the series on H1N1pdm09 (2.8 mg/kg oral) is recorded as “approx. 70%”; in the series with H1N1pdm09 (8.4 mg/kg oral), “approx. 20%”; in the series on H1N1pdm09 (25 mg/kg oral) it was “approx. 10%”. The “virus titer in the lung, effect compared with CI-1040” value in series [6] (25 mg/kg PD-0184264 per os in an 8 h interval, 24 h post infection, FIG. 1) was “same effect as 150 mg/kg CI-1040”. Moreover, the “efficacy in vivo by oral administration” value in series [6] (25 and 75 mg/kg per os) is recorded as “effective”. For the same molecule, in the series on A549 cells [7], the CC50 (commonly the concentration that lowers cell viability or growth by half) was above 1.58 mM. Besides, the “mice protected (survival)” value in series [8] (treatment started 24 hours after infection) is “six out of eight”; in [8] (treatment started 48 hours after infection), “five out of eight”; in [8] (treatment started 72 hours after infection), “two out of eight”. The “sensitivity of both serotypes (OD600, bacterial titers)” value in series [10] is on record as “sensitive”.
Take `N#CC(=C(/N)Sc1ccccc1N)/C(C#N)=C(\N)Sc1ccccc1N` [U0126]: the “effect on bacterial titers” value in the series on S. aureus 6850 [1] and in the series on MRSA strain USA300 [3] was “minor reduction in bacterial titers” in each case.
Consider `CCOC(=O)C1=C[C@@H](OC(CC)CC)[C@H](NC(C)=O)[C@@H](N)C1` [oseltamivir], for which the “effect of treatment started late post infection” value with influenza virus is listed as “no longer effective”; with influenza virus (listed as Tamiflu) it was “no effect”.
In the case of Gentamicin, the resistance development entry in the series with S. aureus is listed as “resistance development occurred during the first week of treatment”. Further, the bacterial titers entry in the series on S. aureus 6850 [1] (0.5 μg/ml, over night) was “no reduction in bacterial titers”; in the series on MRSA strain USA300 [3] (0.5 μg/ml, over night) it was “no reduction in bacterial titers”.
